In patent publication US6576247B1, “Sustained-release aromatic and method of detecting micro-organism by using the same” (Kanebo Ltd. and T. Hasegawa Co. Ltd., priority 1994, dated 2003):

Tests used:
[1] = tested on: Saccharomyces cerevesiae; assay: Perfume glycoside decomposition ability test of bread yeast; format: cell-based; settings: glycoside 0.5% by weight in 15% sucrose solution, yeast 7% by weight, 4° C.
Procedure: Saccharomyces cerevesiae which had been cultured at 30° C. for 1 hour was added, at a concentration of 7% by weight, to a 15% by weight sucrose aqueous solution each containing the glycosides prepared in Synthesis Examples 2, 4 or 5 in an amount of 0.5% by weight. This was cultured at 4° C. while shaked. After 15 minutes and 4 hours culture, the culture liquid was sampled and centrifuged to precipitate the yeast. The supernatant was then extracted with the same volume of diethyl ether as that of the supernatant. The structure of the aroma components was identified on a GC-MS. The amount of the component released was determined on a GC with a detector of FID.

[2] = tested on: Coryneform bacteria (Corynebacterium); assay: Glycoside decomposition ability test of Coryneform bacteria; format: cell-based; settings: for Detected component and its amount: 2-phenylethyl alcohol: 32° C., glycoside 0.5% by weight in SCD liquid medium, GC-FID
Procedure: Each of the glycosides synthesized in Synthesis Examples 1 to 3 was added to a soybean casein digest liquid medium (SCD liquid medium) at an amount of 0.5% by weight based on the medium. To the liquid medium was inoculated 2% of bacterial liquid of Coryneform bacteria which had been precultured in an SCD liquid medium. This was cultured at 32° C. in a static state. The culture liquid was sampled after 2 days and 4 days culture and sterizing treatment was conducted on a conventional manner. After the sterizing treatment, aroma components were extracted with the same volume of diethyl ether as that of the culture liquid sampled. The structure of the components was identified on a GC-MS. The amount of the components released was determined on a GC with a detector of FID.

SMILES | Amount of aroma components ([1]; after 15 minutes culture) | Amount of aroma components ([1]; after 4 hours culture) | Detected component and its amount: 2-phenylethyl alcohol ([2]; after 2 days culture) | Detected component and its amount: 2-phenylethyl alcohol ([2]; after 4 days culture) | Detected component and its amount: vanillin ([2]; after 2 days culture) | Detected component and its amount: vanillyl alcohol ([2]; after 2 days culture) | Detected component and its amount: vanillin ([2]; after 4 days culture) | Detected component and its amount: vanillyl alcohol ([2]; after 4 days culture)
C=CCc1ccc(O[C@@H]2O[C@H](CO)[C@@H](O)[C@H](O)[C@H]2O)c(OC)c1 [eugenyl glucoside (β-form), Eugenyl Glucoside (β-form)] | 0.5 peak area × 10^5 | 1.3 peak area × 10^5 | – | – | – | – | – | –
CC(C)=CCCC(C)CCO[C@@H]1O[C@H](CO)[C@@H](O)[C@H](O)[C@H]1O (stereo partly drawn) [citronellyl glucoside (β-form), Citronellyl Glucoside (β-form)] | 2.6 peak area × 10^5 | 8.8 peak area × 10^5 | – | – | – | – | – | –
OC[C@H]1O[C@@H](OCCc2ccccc2)[C@H](O)[C@@H](O)[C@@H]1O [2-phenylethylglucoside (β-form), 2-Phenylethyl Glucoside (βform)] | – | – | 1.1 peak area × 10^6 | 8.0 peak area × 10^6 | – | – | – | –
COc1cc(C=O)ccc1O[C@@H]1O[C@H](CO)[C@@H](O)[C@H](O)[C@H]1O [glucovanillin (β-form), Glucovanillin (β-form)] | – | – | – | – | 0.01 peak area × 10^6 | 0 peak area × 10^6 | 1.75 peak area × 10^6 | 0.2 peak area × 10^6
OC[C@H]1O[C@H](OCCc2ccccc2)[C@H](O)[C@@H](O)[C@@H]1O [2-phenylethylglucoside (α-form), 2-Phenylethyl Glucoside (α-form)] | 0.4 peak area × 10^5 | 1.6 peak area × 10^5 | 0.01 peak area × 10^6 | 0.3 peak area × 10^6 | – | – | – | –
